Data as given in paper PMC8636635 (Communications Biology, 2021).

What was measured:
SARS-CoV-2 Protein E = SARS-CoV-2 Protein E (Severe acute respiratory syndrome coronavirus 2, UniProt P0DTC4); assay: two-electrode voltage clamp, X. laevis oocytes; conditions: read-out: % block at 10 μM
SARS-CoV-1 Protein E = SARS-CoV-1 Protein E (Severe acute respiratory syndrome-related coronavirus, UniProt P59637); assay type: cell-based
ORF7b = target: T1, ORF7b (Severe acute respiratory syndrome coronavirus 2, UniProt P0DTD8)
T1 construct: gene 7b
T1 sequence (P0DTD8 whole entry): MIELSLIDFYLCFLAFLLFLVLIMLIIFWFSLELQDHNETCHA

Chain of SARS-CoV-2 Protein E (P0DTC4 whole entry): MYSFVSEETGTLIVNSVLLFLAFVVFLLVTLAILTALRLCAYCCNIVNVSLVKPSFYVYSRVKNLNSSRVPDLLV
Chain of SARS-CoV-1 Protein E (P59637 whole entry, looked up): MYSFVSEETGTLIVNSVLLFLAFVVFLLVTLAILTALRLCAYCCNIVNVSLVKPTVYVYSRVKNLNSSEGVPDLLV

SMILES	inhibition at 10 µM (SARS-CoV-2 Protein E)	% block (SARS-CoV-1 Protein E)	% reduction in current at 10 μM (ORF7b)
N=C(N)NC(=O)c1nc(Cl)c(N2CCCCCC2)nc1N [hexamethylene-amiloride]	50%	HMA and emodin blocked the Protein E ion channels from both SARS-CoV-1 and -2	
C1C2CC3CC1CC(C2)C3 [adamantane]		adamantane that also blocked Protein E from SARS-CoV-1, but not that of SARS-CoV-2	
c1ccc2c(c1)Cc1ccccc1O2 [xanthene]	80%		47%
Cc1cc(O)c2c(c1)C(=O)c1cc(O)cc(O)c1C2=O [emodin]	60%	HMA and emodin blocked the Protein E ion channels from both SARS-CoV-1 and -2	79%
NC12CC3CC(CC(C3)C1)C2 [amantadine]	77%		
